Legend:
Adenosine receptor A1 [1] = biological target: T1, Adenosine receptor A1 (Rattus norvegicus, UniProt P25099); assay: Inhibition of Adenylate cyclase activity in rat fat cell membrane at adenosine A1 receptor; assay type: cell-based
T1 sequence (P25099 whole entry): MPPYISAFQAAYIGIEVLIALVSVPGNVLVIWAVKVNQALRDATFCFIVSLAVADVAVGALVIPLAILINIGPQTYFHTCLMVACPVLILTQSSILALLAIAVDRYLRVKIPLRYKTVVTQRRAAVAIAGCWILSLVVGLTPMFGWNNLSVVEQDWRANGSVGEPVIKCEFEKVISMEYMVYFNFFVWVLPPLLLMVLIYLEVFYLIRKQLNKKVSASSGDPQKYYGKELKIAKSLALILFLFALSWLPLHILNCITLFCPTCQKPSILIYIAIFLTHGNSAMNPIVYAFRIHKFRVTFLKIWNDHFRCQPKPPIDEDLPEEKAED

[2] = biological target: T2, Adenosine receptor A1 (Rattus norvegicus) (UniProt P25099); assay: Maximal inhibition of adenylate cyclase activity relative to R-PIA for Adenosine A1 receptor (Inhibition by R-PIA=53+/-10%)
T2 sequence (whole entry): T1 sequence (P25099 whole entry)

Homo sapiens = organism: Homo sapiens; assay: Concentration that inhibits platelet aggregation induced by ADP (7 uM) by 50%; assay type: functional
[3] = A1 selectivity as ratio of EC50 at A2 receptor to IC50 at A1 receptor
Adenosine receptor A1 [4] = biological target: T1, Adenosine receptor A1
Description: Displacement of [3H]PIA from adenosine A1 receptor of rat brain membranes

Adenosine A2 receptor [5] = biological target: Adenosine A2 receptor (Homo sapiens, UniProt P29275+P29274)
Description: Stimulation of adenylate cyclase activity in human platelet membrane at A2 receptor

Adenosine A2 receptor [6] = biological target: Adenosine A2 receptor (Rattus norvegicus, UniProt P29276+P30543)

IC50 (Adenosine receptor A1 [1]) | relative max inhibition [2] | IC50 (Homo sapiens) | Selectivity [3] | Ki (Adenosine receptor A1 [4]) | EC50 (Adenosine A2 receptor [5]) | Ki (Adenosine A2 receptor [6]) | SMILES
6700 nM | 97% | 65500 nM | 2.7 | 115 nM | 18000 nM | 2900 nM | Nc1ccnc2c1ncn2[C@@H]1O[C@H](CO)[C@@H](O)[C@H]1O
– | – | – | – | – | – | 2000 nM | OC[C@H]1O[C@@H](n2cnc3c(NC4CCCC4)ncnc32)[C@H](O)[C@@H]1O [N6-CYCLOPENTYLADENOSINE]
970 nM | 107% | – | 27 | 7.5 nM | 26000 nM | 17600 nM | OC[C@H]1O[C@@H](n2cnc3c(NC4CCCC4)ccnc32)[C@H](O)[C@@H]1O
630 nM | 116% | – | 10.5 | 7.7 nM | 6600 nM | 4900 nM | CC(Cc1ccccc1)Nc1ccnc2c1ncn2C1O[C@H](CO)[C@@H](O)[C@H]1O (stereo partly drawn)
360 nM | 107% | – | 78 | 1.6 nM | 28000 nM | 13200 nM | OC[C@H]1O[C@@H](n2cnc3c(NC4CCCC4)cc(Cl)nc32)[C@H](O)[C@@H]1O
960 nM | 108% | – | 3.6 | 18 nM | 3500 nM | 3700 nM | CC(Cc1ccccc1)Nc1cc(Cl)nc2c1ncn2C1O[C@H](CO)[C@@H](O)[C@H]1O (stereo partly drawn)
– | – | 5940 nM | – | – | – | – | Nc1ncnc2c1ncn2[C@@H]1O[C@H](CO)[C@@H](O)[C@H]1O [ADENOSINE]
2400 nM | 114% | – | 2 | 47 nM | 4800 nM | 8200 nM | OC[C@H]1O[C@@H](n2cnc3c(NC4CCCCC4)cc(Cl)nc32)[C@H](O)[C@@H]1O
1600 nM | 109% | – | 12.4 | 16 nM | 20000 nM | 6800 nM | OC[C@H]1O[C@@H](n2cnc3c(NC4CCCCC4)ccnc32)[C@H](O)[C@@H]1O
1500 nM | 104% | 5960 nM | 1.9 | 51 nM | 2800 nM | 580 nM | CCNC(=O)[C@H]1O[C@@H](n2cnc3c(N)ccnc32)[C@H](O)[C@@H]1O

SMILES | IC50 (Adenosine receptor A1 [1]) | relative max inhibition [2] | IC50 (Homo sapiens) | Selectivity [3] | Ki (Adenosine receptor A1 [4]) | EC50 (Adenosine A2 receptor [5]) | Ki (Adenosine A2 receptor [6])
CCNC(=O)[C@H]1O[C@@H](n2cnc3c(N)ncnc32)[C@H](O)[C@@H]1O [NECA] | – | – | 600 nM | – | – | – | –

From ChEMBL document CHEMBL1124132, “Adenosine receptor agonists: synthesis and biological evaluation of 1-deaza analogues of adenosine derivatives” (J Med Chem, 1988)
